US9458118B2, “Sodium channel modulators for the treatment of pain and diabetes” (CHROMOCELL CORPORATION, priority 2013, dated 2016)

Experiments:
NaV1.7 = molecular target: T1, NaV1.7 (Homo sapiens, UniProt Q15858); assay: FDSS membrane potential in-vitro assay; type: cell-based; details: stimulation with veratridine and scorpion venom
T1 construct: expressed in transfected cells
Experimental: In vitro assays were performed in recombinant cell line that stably express a heterotrimeric protein of interest from an introduced nucleic acid encoding the alpha subunit (hNav1.7, SCN9A), the beta subunit (SCNB1) and the beta subunit (SCNB2). The cell line was engineered using Human Embryonic Kidney 293 cells as host background. Additional cell lines stably expressing recombinant Nav1.7 or Nav1.5 alpha subunit alone or in combination with various beta subunits can also be used in in-vitro assays. […]
Blue membrane potential dye (Molecular Devices Inc.), or membrane potential-sensitive dye, HLB021-152 (AnaSpec) were combined with a fluorescence quencher, e.g., Dipicrylamine (DPA), Acid Violet 17 (AV 17), Diazine Black (DB), HLB30818, FD and C Black Shade, Trypan Blue, Bromophenol Blue, HLB30701, HLB30702, HLB30703, Nitrazine Yellow, Nitro Red, DABCYL (Molecular Probes), FD and C Red NO. […]
The cells were incubated with the membrane potential dye for 45-60 mins at 37° C. The dye-loaded assay plates were then placed in the high-throughput fluorescent plate reader (Hamamatsu FDSS). The kinetic read was started with assay plate imaging every second. […]
Control response elicited by veratridine and scorpion venom with buffer only (without test compounds added) was taken as the maximal response. […] The data were analyzed using GraphPad Prism software to determine the […] value for the test compound. […]

Sprague-Dawley rats = assay: Partial sciatic nerve ligation (PSNL) model, behavioral tests; type: in vivo, rat; details: oral route, measured 30 minutes post dose
Source text: 250-350 g male Sprague-Dawley rats from appropriate animal resources were anesthetized with 2.5% isoflurane. A hind leg was shaved, and the skin was sterilized with 0.5% iodine and 75% alcohol. All surgical instruments were sterilized before surgery and between animals. An incision (1 cm) was made at the middle of the thigh in parallel with the muscle and sciatic nerve distribution. The muscle was exposed and dissected at the joint of two muscles (biceps femoris) indicated by the light colored (white) fascia line. […]
The analgesic effect of the test compound was expressed as a percent recovery (% Recovery) relative to the sham control group baseline and calculated according to the formula: % Recovery=100%−{[(sham mean-test compound mean)/(sham mean-vehicle mean)]×100%} wherein “sham mean” refers to average score in the sham-operated group; “test compound mean” refers to average score in the PSNL-group (animals with partial sciatic nerve ligation) or diabetic group (animals treated with STZ) treated with a test compound; “vehicle mean” refers to average score in the PSNL-group or diabetic group treated with vehicle only. […]
Animals were placed under clear plastic boxes above a wire mesh floor, which allowed full access to the paws. […] Mechanical paw withdrawal thresholds (PWTs) were measured with the up-down testing paradigm. […]

rat = assay: Formalin test (pain behaviors); type: in vivo; details: 150 μL of 1 or 2% w/v solution, topical route
diabetic rats = assay: Anti-diabetic and analgesic effect after chronic dosing in the rat STZ model of diabetes; type: in vivo
Experimental: 250-350 g male Sprague-Dawley rats from appropriate animal resources were used. Type I diabetes was induced by a single injection, (intraperitoneally, intravenously or intramuscularly) of 50-100 mg/kg of streptozotocin (STZ, Sigma Chemicals, St. Louis, Mo. or VWR) freshly dissolved in sodium citrate (0.01 M, pH 4.5). Sham animals were given either saline or same vehicle injection. Following a wait time of about two days, inducement of diabetes was confirmed in STZ-injected rats by measuring the plasma glucose concentrations in blood samples from the tail vein after a fast of 6 hours. The glucose level was assayed using a mini glucose monitor (kit for AlphaTRAK 2 meter, available from Abbott Laboratories). Screening for hyperglycemia in STZ-injected animals was done, with only animals with a final blood glucose level ≧300 mg/dl being selected for the study. Glucose levels in the sham animals remained normal. Other parameters (water intake, food intake, and bodyweight) were monitored before the treatment with a test compound and after the cessation of the treatment.
A Compound provided herein is tested in the rat STZ model of diabetes by chronic administration of the Compound for at least 7 days to evaluate analgesic and antidiabetic effects of the Compound. The analgesic effect of the Compound can be evaluated using behavioral tests (e.g., von Frey test, plantar test, and paw pressure test described herein below). The anti-diabetic effect of the Compound can be evaluated based on the improvement in the glucose level, food intake, water intake in the compound treated group compared to the untreated vehicle group and the normal, non-diabetic sham control group.
Diabetes mellitus was induced in rats as described in the section entitled “The Streptozotocin (STZ)-Induced Model of Diabetic Neuropathy” above.
The baseline glucose levels, daily food and water intake and behavioral tests (von Frey, paw pressure and plantar tests) were measured for each animal once weekly for 28 weeks, and once every 2-4 weeks for an additional 28-30 weeks. At a selected week (started from week 6) for a compound test, diabetic rats were divided into two test groups: a vehicle control group and a test compound treated group (n=10 each group). A sham group (saline only without STZ i.p. injection, n=10) was added as a normal, non-diabetic control group. To minimize animal stress associated with repeated daily handling, the compound treated diabetic group of animals received the test compound at a daily dose of 60 mg/kg in their drinking water containing 2% PEG600 and 1% glycofurol (the test compound concentration in the drinking water was based on the individual animal's average daily water consumption as determined the pre-dosing period, which averaged 0.1-0.11 mg/ml). The vehicle control group received drinking water containing 2% PEG600 and 1% glycofurol without the test compound. The treatment continued for 9 days. On day 10 drinking water with test compound or vehicle (2% PEG600 and 1% glycofurol) was replaced with plain drinking water in all groups. The monitoring of glucose levels, food and water intake as well as behavior tests continued for additional 28-30 weeks. […] A gradual, significant reversal of up to 90% of mechanical allodynia (von Frey test) was achieved after 9 days of treatment.
FIGS. 1-3 show food intake, glucose level, and water intake, respectively, for the vehicle control group, the test compound treated group (compound 49, 60 mg/kg/day), and the sham group. […] The significant reduction of food intake, glucose level, and water intake of the compound treated group compared to the vehicle control group continues through week 52. […] Since the standard deviation in the sham groups are less than 5%, no error bars are shown.

[1] = diabetic rats, 60 mg/kg/day in drinking water, 9 days
[2] = measured on day 11, two days after compound withdrawal

T1 sequence (Q15858 whole entry): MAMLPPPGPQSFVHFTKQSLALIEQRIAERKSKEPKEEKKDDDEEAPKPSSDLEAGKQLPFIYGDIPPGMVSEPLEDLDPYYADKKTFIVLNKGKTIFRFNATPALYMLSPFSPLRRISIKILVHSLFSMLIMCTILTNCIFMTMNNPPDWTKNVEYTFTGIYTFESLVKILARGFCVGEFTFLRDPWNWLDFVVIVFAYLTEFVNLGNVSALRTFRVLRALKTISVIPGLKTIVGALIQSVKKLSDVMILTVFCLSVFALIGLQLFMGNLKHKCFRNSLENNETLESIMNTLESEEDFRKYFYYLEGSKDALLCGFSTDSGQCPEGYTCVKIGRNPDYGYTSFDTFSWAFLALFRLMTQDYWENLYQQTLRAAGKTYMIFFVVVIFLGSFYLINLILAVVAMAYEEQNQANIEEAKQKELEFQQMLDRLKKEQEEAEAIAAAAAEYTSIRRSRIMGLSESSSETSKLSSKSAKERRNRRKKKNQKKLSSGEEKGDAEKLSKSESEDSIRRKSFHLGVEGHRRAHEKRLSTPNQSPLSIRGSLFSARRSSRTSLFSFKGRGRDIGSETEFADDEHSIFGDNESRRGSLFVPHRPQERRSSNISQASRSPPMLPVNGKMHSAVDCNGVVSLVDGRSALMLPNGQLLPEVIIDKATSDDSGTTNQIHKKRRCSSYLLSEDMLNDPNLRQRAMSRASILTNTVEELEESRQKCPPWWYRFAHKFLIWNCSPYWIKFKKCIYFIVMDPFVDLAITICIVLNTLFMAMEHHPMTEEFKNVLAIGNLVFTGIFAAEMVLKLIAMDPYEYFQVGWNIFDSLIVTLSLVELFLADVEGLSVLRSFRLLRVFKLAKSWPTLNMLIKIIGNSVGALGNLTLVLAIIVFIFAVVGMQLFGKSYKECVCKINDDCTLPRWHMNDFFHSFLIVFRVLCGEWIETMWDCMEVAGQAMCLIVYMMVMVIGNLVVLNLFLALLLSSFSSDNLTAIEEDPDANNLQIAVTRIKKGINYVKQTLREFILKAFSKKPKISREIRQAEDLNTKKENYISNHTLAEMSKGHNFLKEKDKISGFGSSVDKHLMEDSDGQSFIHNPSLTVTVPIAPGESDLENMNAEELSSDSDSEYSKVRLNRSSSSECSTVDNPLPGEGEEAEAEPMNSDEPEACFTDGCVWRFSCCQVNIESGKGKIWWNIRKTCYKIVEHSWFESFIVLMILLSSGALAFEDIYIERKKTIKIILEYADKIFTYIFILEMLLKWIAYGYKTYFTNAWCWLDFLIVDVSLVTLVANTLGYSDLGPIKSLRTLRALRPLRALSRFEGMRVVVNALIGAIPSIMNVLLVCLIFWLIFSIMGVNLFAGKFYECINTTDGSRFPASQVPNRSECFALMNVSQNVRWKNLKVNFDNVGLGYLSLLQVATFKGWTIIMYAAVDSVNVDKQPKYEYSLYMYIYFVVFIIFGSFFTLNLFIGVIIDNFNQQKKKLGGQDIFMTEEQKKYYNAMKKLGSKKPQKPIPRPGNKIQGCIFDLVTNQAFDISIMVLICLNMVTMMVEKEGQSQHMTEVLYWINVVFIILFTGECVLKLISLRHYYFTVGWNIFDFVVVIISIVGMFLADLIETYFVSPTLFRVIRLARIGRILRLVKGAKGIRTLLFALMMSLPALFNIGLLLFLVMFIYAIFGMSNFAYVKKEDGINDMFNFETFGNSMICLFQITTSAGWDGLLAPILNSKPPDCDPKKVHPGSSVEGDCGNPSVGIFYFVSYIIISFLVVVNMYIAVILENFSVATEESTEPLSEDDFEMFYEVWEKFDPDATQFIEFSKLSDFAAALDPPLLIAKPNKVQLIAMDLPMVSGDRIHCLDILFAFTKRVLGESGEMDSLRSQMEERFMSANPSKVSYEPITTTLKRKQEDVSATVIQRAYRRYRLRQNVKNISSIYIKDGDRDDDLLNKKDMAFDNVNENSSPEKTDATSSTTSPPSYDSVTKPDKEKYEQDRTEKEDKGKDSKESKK
T1 sequence (Q07699 19-218 partner): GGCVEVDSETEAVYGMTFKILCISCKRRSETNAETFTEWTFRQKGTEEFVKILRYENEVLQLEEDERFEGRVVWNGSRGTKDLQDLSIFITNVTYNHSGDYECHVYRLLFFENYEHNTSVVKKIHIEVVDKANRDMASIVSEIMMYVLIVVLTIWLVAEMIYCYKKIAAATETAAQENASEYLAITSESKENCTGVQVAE
T1 sequence (O60939 30-215 partner): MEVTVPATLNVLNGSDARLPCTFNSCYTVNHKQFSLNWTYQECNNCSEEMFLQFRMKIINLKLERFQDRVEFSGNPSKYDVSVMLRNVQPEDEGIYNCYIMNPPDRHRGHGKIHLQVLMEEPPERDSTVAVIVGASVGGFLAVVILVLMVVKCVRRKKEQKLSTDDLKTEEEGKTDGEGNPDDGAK

Compound | IC50 (NaV1.7) [µM] | effect in the tactile allodynia test relative to vehicle control (Sprague-Dawley rats) | reduction in pain response (formalin assay phase 2) relative to vehicle control (rat) | reduction in pain response (formalin assay, phase 1) relative to vehicle control (rat) | food intake compared to the vehicle control group (diabetic rats; FIG. 1, 60 mg/kg/day for 9 days, reduction continues through week 52) | glucose level compared to the vehicle control group (diabetic rats; FIG. 2, 60 mg/kg/day for 9 days, reduction continues through week 52) | water intake compared to the vehicle control group (diabetic rats; FIG. 3, 60 mg/kg/day for 9 days, reduction continues through week 52) | general appearance and/or health (diabetic rats; after the treatment stopped on day 9) | mechanical pain (paw pressure test) (diabetic rats; [1]) | tachyphylaxis (diabetic rats; [1]) | thermal pain (plantar test) (diabetic rats; [1]) | paw pressure test threshold after compound withdrawal (diabetic rats; [2]) | plantar test threshold after compound withdrawal (diabetic rats; [2])
C#CCN(CCCc1cc(Cl)ccc1Oc1cc(F)c(S(=O)(=O)Nc2nccs2)cc1Cl)CC(=O)O [Compound 54, 2-((3-(5-chloro-2-(2-chloro-5-fluoro-4-(N-(thiazol-2-yl)sulfamoyl)phenoxy)phenyl)propyl)(prop-2-yn-1-yl)amino)acetic acid] | < 0.1 | no significant effect |  |  |  |  |  |  |  |  |  |  | 
O=C(O)CCNCCCc1cc(Cl)ccc1Oc1cc(F)c(S(=O)(=O)Nc2ncns2)cc1Cl [Compound 12, 3-((3-(2-(4-(N-(1,2,4-thiadiazol-5-yl)sulfamoyl)-2-chloro-5-fluorophenoxy)-5-chlorophenyl)propyl)amino)propanoic acid] |  |  | 29-43% | 13-24% |  |  |  |  |  |  |  |  | 
NC(=O)CNCCCc1cc(Cl)ccc1Oc1cc(F)c(S(=O)(=O)Nc2cscn2)cc1Cl [Compound 49, 2-((3-(5-chloro-2-(2-chloro-5-fluoro-4-(N-(thiazol-4-yl)sulfamoyl)phenoxy)phenyl)propyl)amino)acetamide] |  | no significant effect |  |  | significantly reduced | significantly reduced | significantly reduced | improvements in general appearance and/or health | rapid and sustained improvement | no tachyphylaxis | rapid and sustained improvement | returned to the pretreatment baseline | returned to the pretreatment baseline
